Results as given in patent publication US12421260B2, “Neurokinin-1 antagonist” (SHANGHAI SHENGDI PHARMACEUTICAL CO., LTD, priority 2019, dated 2025).
Values after ≈ are worked out from the molar mass of the structure shown. Like-named read-outs stand apart in the source and are kept apart here.

Experiments:
[1] = Metabolism in plasma of rat (Test Example 4); format: in vitro ADME; set-up: unit not given here
Method: (§1) 5 μL of the 16 μM working solution of the compound of Example 5 was added to 75 μL plasma at a final concentration of 1 μM. The samples were incubated in a 37° C. water bath for 0, 15, 30, 60, 90, 120 and 180 min. After completion of the incubation, 240 μL of internal standard containing acetonitrile was added into the samples which was then shaken on a shaker at 800 rpm for 10 min and centrifuged at 3700 rpm at 4° C. for 20 min. The supernatant was analyzed by LC-MS, and the injection volume was 2 μL.
(§2) The metabolism of the compounds of Example 1, Example 2 and Example 8 in the plasma of mouse, rat and human was determined by referring to the test method in Test Example 2.

[2] = Metabolism in plasma of mouse (Test Example 4); format: in vitro ADME; set-up: unit not given here
Method: as §1, §2

[3] = In vivo pharmacokinetic test in rats (Test Example 5); details: plasma, rat, intravenous bolus 2 mg/kg
Method: Rats were used as the test animals. The plasma drug concentration at different time points after administration of the compounds of Example 1 and Example 2 by injection was determined using LC/MS/MS method. The in vivo pharmacokinetic of the compounds in rats was studied, and the pharmacokinetic characteristics were evaluated.
A certain amount of the compounds of Example 1 and Example 2 were weighed and prepared into a pH=4.0 solution by using 20 mmol/L sodium dihydrogen phosphate for later use.
The drug was administered by intravenous bolus injection with an injection time of about 5 min, administration dose of 2 mg/kg, administration concentration of 0.4 mg/ml and administration volume of 5 ml/kg.
Blood was collected from the orbital vein before administration and 5 min, 0.25 h, 0.5 h, 1 h, 2 h, 4 h, 6 h, 8 h, 10 h, 24 h and 48 h after administration. About 0.6 mL was collected for each sample which was subject to anticoagulation using heparin sodium and placed on ice immediately after collection. The blood samples were placed in labeled centrifuge tubes after collection, and plasma was separated by centrifugation (centrifugation conditions: centrifugal force 2200 g, centrifugation at 2-8° C. for 10 min).

[4] = Chemical stability of the compounds (Test Example 1); format: physicochemical; details: purity loss after placing for 7 days; 4° C. and room temperature
Method: 2.1 Test of Stability of the Compounds
About 1 mg of sample was weighed into a vial, then the vial was placed in a vacuum bag and the bag was vacuumized. Then the bag was put into a container containing color-changing silica gel and sealed. Two parallel samples were prepared. Enough samples were prepared according to the sampling time point and placed at 4° C. and room temperature respectively.

[5] = Metabolism in human plasma (Test Example 4); format: in vitro ADME; set-up: plasma concentration of the compounds of the examples: unit not given here
Method: as §1, §2

[6] = Water solubility (Test Example 1); format: physicochemical; details: aqueous buffer, thermodynamic from solid
Method: 1.1. Preparation of Reagents
The 100 mL strength reagents were prepared as follows:
pH=3.0: phosphate buffer solution: 100 ml of 20 mmol/L NaH2PO4, 0.1M H3PO4, adjusting pH to 3.0.
pH=4.0: phosphate buffer solution: 100 ml of 20 mmol/L NaH2PO4, 0.1M H3PO4, adjusting pH to 4.0. […]
An appropriate amount of test compound was accurately weighed. The solution was added at a small amount each time for several times and stirred until the compound was dissolved, and the content of the compound in the solution was determined.

Red blood cells (RBC) = assay: Hemolytic effect (Test Example 8); format: cell-based, rabbits; details: rabbit red blood cell 2% suspension, PBS
Method: Red blood cells (RBC) were collected from the jugular vein or central ear artery of rabbits (10 ml of EDTA whole blood). The blood was put in a conical flask with glass beads and shaken for 10 minutes to remove fibrinogen, resulting in defibrinated blood. About 10 times the amount of sodium chloride solution was added to the defibrinated blood, which was then shaken well and centrifuged at 1500 rpm for 10 minutes. The supernatant was removed and the precipitated red blood cells were washed with sodium chloride injection for 3 times according to the above method, until the supernatant was observed colorless. The obtained red blood cells were prepared into a 2% (v/v) suspension with sodium chloride injection for later use.
The test samples (the compound of Example 5 and the compound of Example 19) were respectively dissolved in PBS (pH 7.4 or pH 5) and filtered to prepare 0.4 mg/ml, 0.8 mg/ml, 1.2 mg/ml, 1.6 mg/ml and 2 mg/ml solutions for later use.
A certain amount of test sample solution was added to the above […] for testing in the supernatant.
The sample should be further observed under a microscope, and if red blood cells can be seen as aggregated, then coagulation has occurred. The hemolytic effect of the compounds of the present disclosure was determined by using this method.

[7] = Pharmacokinetic test in cynomolgus monkeys, Example 5 (Test Example 6); format: in vivo; details: for AUC(0-t) / Cmax / Tmax: cynomolgus monkey, iv 2 mg/kg Example 5
Method: Cynomolgus monkeys were used as the test animals. The plasma drug concentration at different time points after iv administration of the compound of Example 5 by injection was determined using LC/MS/MS method. The in vivo pharmacokinetic of the compound of the present invention in cynomolgus monkeys was studied, and the pharmacokinetic characteristics were evaluated.
A certain amount of the compound of Example 5 was weighed and prepared into a pH=4.0 solution by using 20 mmol/L sodium dihydrogen phosphate for later use.
The drug was administered by intravenous with injection time of about 30 min, administration dose of 2 mg/kg, administration concentration of 0.4 mg/ml and administration volume of 5 ml/kg.
Blood was collected from the femoral vein before administration and 5 min, 0.25 h, 0.5 h, 1 h, 2 h, 4 h, 6 h, 8 h, 10 h, 24 h and 48 h after administration. About 0.6 ml of was collected for each sample, which was subject to anticoagulation using heparin sodium and placed on ice immediately after collection. The blood samples were placed in labeled centrifuge tubes after collection, and plasma was separated by centrifugation (centrifugation conditions: centrifugal force 2200 g, centrifugation at 2-8° C. for 10 min).
The content of the compound of Example 5 and rolapitant in plasma samples was determined by LC/MS/MS.

[8] = Plasma stability test, conversion in fresh human plasma (Test Example 2); format: in vitro ADME; details: for Compound of Example 5 concentration in plasma: human plasma, 37° C.
Method: The compound of Example 5 and the compound of formula I.
Human fresh plasma was donated by volunteers with informed consent.
1.3 Preparation of Solution of the Compound
A certain amount of the compound of Example 5 was weighed and DMSO was added to prepare a 30 mM stock solution. A certain volume of the stock solution was diluted with DMSO to prepare solution I at a concentration of 1600 μM. Then a certain volume of the 1600 μM solution I was diluted with 45% methanol to prepare working solution II at a concentration of 16 μM. The 30 mM stock solution and the 1600 μM solution […] for the compound of formula I were also prepared by the above method.
as §1
1.5 Preparation of Standard Curve
The previously 1600 μM solution I was diluted with acetonitrile to prepare the standard curve working solution with concentrations of 160, 400, 1600, 4000, 8000, 16000 and 32000 ng/mL. The concentration of QC working solution was 480, 1920 and 25600 ng/mL. 5 μL of the standard curve working solution and QC working solution were added to 75 μL plasma to obtain the standard curve samples with final concentrations of 10, 25, 100, 250, 500, 1000 and 2000 ng/mL and QC samples with final concentrations of 30, 120 and 1600 ng/mL. 240 μL of acetocyano containing the internal standard was then added into the samples quickly, which was then shaken in a shaker at 800 rpm for 10 min and centrifuged at 3700 rpm at 4° C. for 20 min. The supernatant was collected and analyzed by LC-MS, and the injection volume was 2 μL.
The standard curve of the compound of formula I and QC sample were prepared by the above method.

## C[C@@H](OC[C@@]1(c2ccccc2)CC[C@]2(CCC(=O)N2)CN1C(=O)OCCCOP(=O)(O)O)c1cc(C(F)(F)F)cc(C(F)(F)F)c1 [Example 2]
[1]
  plasma concentration of the compounds of the examples: 97.70
[2]
  plasma concentration of the compounds of the examples: 91.17
[3]; read-out: AUC0-t of the compound of the example
  AUC(0-t): 41.6 ng·h/mL
[3]; read-out: AUC0-∞ of the compound of the example
  AUC(0-inf): 42.2 ng·h/mL
[3]; read-out: MRT 0-∞ of the compound of the example
  MRT inf: 4.38 min
[3]; read-out: T1/2 of the compound of the example (converted)
  half-life: 5.22 min
[4]
  Chemical stability: Good (purity reduced by <0.5% after placing for 7 days)
[5]
  conversion into rolapitant (in words): basically no convertion into rolapitant in human plasma, or only a slight conversion
  plasma concentration of the compounds of the examples: 99.00
[6]; PH = 5
  solubility: 9050 µg/mL (≈ 13.3 mM)

## CC(C)[C@H](N)C(=O)OCOC(=O)N1C[C@@]2(CCC(=O)N2)CC[C@@]1(CO[C@H](C)c1cc(C(F)(F)F)cc(C(F)(F)F)c1)c1ccccc1 [Example 5]
Red blood cells (RBC)
  concentration with hemolytic effect: ≥ 0.04 mg/mL
[4]
  Chemical stability: Good (purity reduced by <0.5% after placing for 7 days)
[7]; cynomolgus monkeys, iv 2 mg/kg
  in vivo transformation into rolapitant (in words): most of the compound were rapidly transformed into the active metabolite rolapitant
[7]; plasma, analyte Example 5, read-out: AUC0-t
  AUC(0-t): 0.77 ± 0.29 ng·h/mL
[7]; plasma, analyte Example 5, read-out: Cmax
  Cmax: 2.28 ± 0.39 ng/mL
[7]; plasma, analyte Example 5, read-out: Tmax
  Tmax: 6.6 ± 7.2 min
[8]; 0 min, 1 μM start
  Compound of Example 5 concentration in plasma: 1 µM
[8]; 15 min
  Compound of Example 5 concentration in plasma: 0.53 µM
[8]; 30 min
  Compound of Example 5 concentration in plasma: 0.12 µM
[8]; 60 min
  Compound of Example 5 concentration in plasma: 0.01 µM
[8]; 90 min
  Compound of Example 5 concentration in plasma: 0.00 µM
[8]; 120 min
  Compound of Example 5 concentration in plasma: 0.00 µM
[8]; 180 min
  Compound of Example 5 concentration in plasma: 0.00 µM
[6]; phosphate buffer, PH = 4
  solubility: > 10000 µg/mL

## C[C@@H](OC[C@@]1(c2ccccc2)CC[C@]2(CCC(=O)N2C(=O)CCC(=O)O)CN1)c1cc(C(F)(F)F)cc(C(F)(F)F)c1 [Example 8]
[1]
  plasma concentration of the compounds of the examples: 59.89
[2]
  plasma concentration of the compounds of the examples: 61.67
[4]
  Chemical stability: Moderate (purity reduced by 0.5%~2.0% after placing for 7 days)
[5]
  conversion rate into rolapitant: ~46%
  plasma concentration of the compounds of the examples: 54.54
[6]; PH = 5
  solubility: 1370 µg/mL (≈ 2.28 mM)

## C[C@@H](OC[C@@]1(c2ccccc2)CC[C@]2(CCC(=O)N2)CN1C(=O)OCOP(=O)(O)O)c1cc(C(F)(F)F)cc(C(F)(F)F)c1 [Example 19]
Red blood cells (RBC)
  concentration with no hemolytic effect: up to 2 mg/ml

## (5S,8S)-8-[{(1R)-1-(3,5-bis-(trifluoromethyl)phenyl)-ethoxy}-methyl]-8-phenyl-1,7-diazaspiro[4.5]dec-2-one [Rolapitant, reference compound]
[7]; analyte rolapitant
  AUC(0-t): 4326.87 ± 1820.65 ng·h/mL
  Cmax: 315.25 ± 97.08 ng/mL
  Tmax: 8.4 ± 6 min
[8]; human plasma incubated with 1 μM Example 5, 0 min
  Compound of formula 1 concentration formed from Example 5: 0.00 µM
[8]; human plasma incubated with 1 μM Example 5, 15 min
  Compound of formula 1 concentration formed from Example 5: 0.78 µM
[8]; human plasma incubated with 1 μM Example 5, 30 min
  Compound of formula 1 concentration formed from Example 5: 1.18 µM
[8]; human plasma incubated with 1 μM Example 5, 60 min
  Compound of formula 1 concentration formed from Example 5: 1.22 µM
[8]; human plasma incubated with 1 μM Example 5, 90 min
  Compound of formula 1 concentration formed from Example 5: 1.31 µM
[8]; human plasma incubated with 1 μM Example 5, 120 min
  Compound of formula 1 concentration formed from Example 5: 1.28 µM
[8]; human plasma incubated with 1 μM Example 5, 180 min
  Compound of formula 1 concentration formed from Example 5: 1.02 µM
